US11447465B2, “Pharmaceutical compounds for treatment of medical disorders” (Achillion Pharmaceuticals, Inc., priority 2017, dated 2022)

These compounds were tested against Human Factor D (Homo sapiens (Human), UniProt P00746) (assay: Human Factor D Assay). Settings: Table 7; read-out: IC5 (Stars).
Assay type: biochemical
Procedure, shortened: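 Serum-purified human factor D (80 nM final) preincubated with compound 5 min at room temperature in 50 mM Tris, 1 M NaCl, pH 7.5. Z-L-Lys-SBzl and DTNB added at 100 μM each; A405 followed every 30 s for 30 min. IC50 by nonlinear regression of rates.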

Human Factor D, sequence (P00746 26-253): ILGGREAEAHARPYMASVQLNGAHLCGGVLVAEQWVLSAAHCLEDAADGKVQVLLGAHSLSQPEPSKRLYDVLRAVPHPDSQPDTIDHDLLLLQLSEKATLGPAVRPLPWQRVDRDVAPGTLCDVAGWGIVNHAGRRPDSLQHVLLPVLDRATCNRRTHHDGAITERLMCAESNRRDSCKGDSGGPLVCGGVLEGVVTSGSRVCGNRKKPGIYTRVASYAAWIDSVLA

SMILES | IC50
CC(=O)c1nn(CC(=O)N2[C@H](C(=O)NCc3cccc(Cl)c3F)C[C@@]3(CNC(=O)COCCOCCNC(=O)COCCOCCNC(=O)CC[C@H](NC(=O)CCCCCCCCCCCCCCCCC(=O)O)C(=O)O)C[C@@H]23)c2c(C)cc(NC(=O)N3CCCC(F)(F)C3)cc12 [Compound T-68, (S)-1-((1R,3S,5R)-2-(2-(3-acetyl-5-(3,3-difluoropiperidine-1-carboxamido)-7-methyl-1H-indazol-1-yl)acetyl)-3-((3-chloro-2-fluorobenzyl)carbamoyl)-2-azabicyclo[3.1.0]hexan-5-yl)-24-carboxy-3,12,21,26-tetraoxo-5,8,14,17-tetraoxa-2,11,20,25-tetraazatritetracontan-43-oic acid] | < 1000 nM
Cc1ccc(Br)nc1NC(=O)[C@@H]1C[C@@]2(CNC(=O)COCCOCCNC(=O)COCCOCCNC(=O)CC[C@H](NC(=O)CCCCCCCCCCCCCCCCC(=O)O)C(=O)O)C[C@H]2N1C(=O)Cn1nc(C(N)=O)c2cc(Nc3cccnc3)ccc21 [Compound T-71, (S)-1-((1R,3S,5R)-3-((6-bromo-3-methylpyridin-2-yl)carbamoyl)-2-(2-(3-carbamoyl-5-(pyridin-3-ylamino)-1H-indazol-1-yl)acetyl)-2-azabicyclo[3.1.0]hexan-5-yl)-24-carboxy-3,12,21,26-tetraoxo-5,8,14,17-tetraoxa-2,11,20,25-tetraazatritetracontan-43-oic acid] | < 1000 nM
CCOP(=O)(CC)COc1ccc2c(C(C)=O)nn(CC(=O)N3C[C@H](F)C[C@H]3C(=O)Nc3nc(Br)ccc3C)c2c1 (stereo partly drawn) [Compound T-77, ethyl (((3-acetyl-1-(2-((2S,4R)-2-((6-bromo-3-methylpyridin-2-yl)carbamoyl)-4-fluoropyrrolidin-1-yl)-2-oxoethyl)-1H-indazol-6-yl)oxy)methyl)(ethyl)phosphinate] | < 1000 nM
CCOP(=O)(COc1ccc2c(C(C)=O)nn(CC(=O)N3C[C@H](F)C[C@H]3C(=O)Nc3nc(Br)ccc3C)c2c1)OCC [Compound T-78, diethyl (((3-acetyl-1-(2-((2S,4R)-2-((6-bromo-3-methylpyridin-2-yl)carbamoyl)-4-fluoropyrrolidin-1-yl)-2-oxoethyl)-1H-indazol-6-yl)oxy)methyl)phosphonate] | < 1000 nM
CCP(=O)(O)COc1ccc2c(C(C)=O)nn(CC(=O)N3C[C@H](F)C[C@H]3C(=O)Nc3nc(Br)ccc3C)c2c1 [Compound T-79, (((3-acetyl-1-(2-((2S,4R)-2-((6-bromo-3-methylpyridin-2-yl)carbamoyl)-4-fluoropyrrolidin-1-yl)-2-oxoethyl)-1H-indazol-6-yl)oxy)methyl)(ethyl)phosphinic acid] | < 1000 nM
CC(=O)c1nn(CC(=O)N2[C@H](C(=O)Nc3nc(Br)ccc3C)C[C@@]3(Cn4cc(C5CC5)nn4)C[C@@H]23)c2cnccc12 [Compound T-83, (1R,3S,5R)-2-(2-(3-acetyl-1H-pyrazolo[3,4-c]pyridin-1-yl)acetyl)-N-(6-bromo-3-methylpyridin-2-yl)-5-((4-cyclopropyl-1H-1,2,3-triazol-1-yl)methyl)-2-azabicyclo[3.1.0]hexane-3-carboxamide] | < 1000 nM
CC(=O)c1nn(CC(=O)N2[C@H](C(=O)Nc3nc(Br)ccc3C)C[C@@]3(C)C[C@@H]23)c2cc3sc(C)nc3cc12 [Compound T-84, (1R,3S,5R)-2-(2-(3-acetyl-6-methyl-1H-thiazolo[4,5-f]indazol-1-yl)acetyl)-N-(6-bromo-3-methylpyridin-2-yl)-5-methyl-2-azabicyclo[3.1.0]hexane-3-carboxamide] | < 1000 nM
CC(=O)c1nn(CC(=O)N2[C@H](C(=O)Nc3nc(Br)ccc3C)C[C@@]3(CNC(=O)COCCOCCNC(=O)COCCOCCNC(=O)CC[C@H](NC(=O)CCCCCCCCCCCCCCCCC(=O)O)C(=O)O)C[C@@H]23)c2ccccc12 [Compound T-85, (S)-1-((1R,3S,5R)-2-(2-(3-acetyl-1H-indazol-1-yl)acetyl)-3-((6-bromo-3-methylpyridin-2-yl)carbamoyl)-2-azabicyclo[3.1.0]hexan-5-yl)-24-carboxy-3,12,21,26-tetraoxo-5,8,14,17-tetraoxa-2,11,20,25-tetraazatritetracontan-43-oic acid] | < 1000 nM
Cc1ccc(Br)nc1NC(=O)[C@@H]1C[C@@]2(C)C[C@H]2N1C(=O)Cn1nc(N2CCCC2=O)c2ccncc21 [Compound T-86, (1R,3S,5R)-N-(6-bromo-3-methylpyridin-2-yl)-5-methyl-2-(2-(3-(2-oxopyrrolidin-1-yl)-1H-pyrazolo[3,4-c]pyridin-1-yl)acetyl)-2-azabicyclo[3.1.0]hexane-3-carboxamide] | > 10000 nM
Cc1ccc(Br)nc1NC(=O)[C@@H]1C[C@@]2(C)C[C@H]2N1C(=O)Cn1nc(N2CCC2=O)c2ccncc21 [Compound T-87, (1R,3S,5R)-N-(6-bromo-3-methylpyridin-2-yl)-5-methyl-2-(2-(3-(2-oxoazetidin-1-yl)-1H-pyrazolo[3,4-c]pyridin-1-yl)acetyl)-2-azabicyclo[3.1.0]hexane-3-carboxamide] | < 1000 nM
Cc1ccc(Br)nc1NC(=O)[C@@H]1C[C@@]2(C)C[C@H]2N1C(=O)Cn1nc(NCCC(=O)O)c2ccncc21 [Compound T-89, 3-((1-(2-((1R,3S,5R)-3-((6-bromo-3-methylpyridin-2-yl)carbamoyl)-5-methyl-2-azabicyclo[3.1.0]hexan-2-yl)-2-oxoethyl)-1H-pyrazolo[3,4-c]pyridin-3-yl)amino)propanoic acid] | > 10000 nM
Cc1ccc(Br)nc1NC(=O)C1CC2(C)CC2N1C(=O)Cn1nc(NCCC(=O)O)c2ccncc21 (stereo not shown) [Compound T-90, 3-((1-(2-(3-((6-bromo-3-methylpyridin-2-yl)carbamoyl)-5-methyl-2-azabicyclo[3.1.0]hexan-2-yl)-2-oxoethyl)-1H-pyrazolo[3,4-c]pyridin-3-yl)amino)propanoic acid] | > 10000 nM
Cc1ccc(Br)nc1NC(=O)[C@@H]1C[C@@]2(C)C[C@H]2N1C(=O)Cc1cccc(-c2nnn[nH]2)c1 [Compound T-91, (1R,3S,5R)-2-(2-(3-(1H-tetrazol-5-yl)phenyl)acetyl)-N-(6-bromo-3-methylpyridin-2-yl)-5-methyl-2-azabicyclo[3.1.0]hexane-3-carboxamide] | > 10000 nM
CC(=O)c1nn(CC(=O)N2[C@H](C(=O)Nc3nc(Br)ccc3C)C[C@@]3(C)C[C@@H]23)c2ccc(Nc3cccn(-c4ccccn4)c3=O)cc12 [Compound T-92, (1R,3S,5R)-2-(2-(3-acetyl-5-((2-oxo-2H-[1,2′-bipyridin]-3-yl)amino)-1H-indazol-1-yl)acetyl)-N-(6-bromo-3-methylpyridin-2-yl)-5-methyl-2-azabicyclo[3.1.0]hexane-3-carboxamide] | < 1000 nM
CC(=O)c1nn(CC(=O)N2[C@H](C(=O)Nc3nc(Br)ccc3C)C[C@@]3(C)C[C@@H]23)c2cc3nc(C)oc3cc12 [Compound T-93, (1R,3S,5R)-2-(2-(3-acetyl-6-methyl-1H-oxazolo[5,4-f]indazol-1-yl)acetyl)-N-(6-bromo-3-methylpyridin-2-yl)-5-methyl-2-azabicyclo[3.1.0]hexane-3-carboxamide] | < 1000 nM
Cc1ccc(Br)nc1NC(=O)[C@@H]1C[C@@]2(C)C[C@H]2N1C(=O)Cc1ccc2[nH]nc(C#N)c2c1 [Compound T-94, (1R,3S,5R)-N-(6-bromo-3-methylpyridin-2-yl)-2-(2-(3-cyano-1H-indazol-5-yl)acetyl)-5-methyl-2-azabicyclo[3.1.0]hexane-3-carboxamide] | > 10000 nM
